Measurements reported in publication PMC9297976 (Journal of Applied Toxicology, 2021).

How the values were obtained:
[1] = target: T1, medaka ARβ (mArβ) (Oryzias latipes, UniProt D1MV73); test: Medaka ARβ reporter gene assay, agonist assay; format: cell-based, Japanese medaka (Oryzias latipes)
T1 sequence (D1MV73 1-744): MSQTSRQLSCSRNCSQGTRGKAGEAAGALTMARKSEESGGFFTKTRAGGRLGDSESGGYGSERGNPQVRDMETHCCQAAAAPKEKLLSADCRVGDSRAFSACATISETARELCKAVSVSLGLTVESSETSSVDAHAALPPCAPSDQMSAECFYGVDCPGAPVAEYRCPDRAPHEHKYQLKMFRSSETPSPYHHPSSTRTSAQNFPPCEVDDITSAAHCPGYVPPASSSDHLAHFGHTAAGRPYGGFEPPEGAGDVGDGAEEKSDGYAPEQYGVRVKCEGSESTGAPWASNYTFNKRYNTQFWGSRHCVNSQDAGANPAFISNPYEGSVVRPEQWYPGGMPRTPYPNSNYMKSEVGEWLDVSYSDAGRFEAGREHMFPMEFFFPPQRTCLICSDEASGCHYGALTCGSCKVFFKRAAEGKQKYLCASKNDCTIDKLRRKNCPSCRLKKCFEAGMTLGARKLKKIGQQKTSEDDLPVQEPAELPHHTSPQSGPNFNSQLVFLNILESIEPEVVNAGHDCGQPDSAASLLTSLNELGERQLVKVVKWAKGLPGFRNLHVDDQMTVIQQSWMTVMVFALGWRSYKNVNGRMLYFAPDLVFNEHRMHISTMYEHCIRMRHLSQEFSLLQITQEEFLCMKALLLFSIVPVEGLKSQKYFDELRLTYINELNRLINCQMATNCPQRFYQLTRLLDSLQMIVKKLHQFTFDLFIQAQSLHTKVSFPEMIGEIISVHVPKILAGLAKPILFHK

[2] = test system: Japanese medaka (Oryzias latipes); test: Fish Short‐Term Reproduction Assay; format: in vivo; details: for LOECREPRO: LOEC on reproduction (fecundity and/or fertility); for minimal effective concentration: Oryzias latipes, 504 h, read-out: LOECmVTG; for LOECREPRO (reduction in fecundity or fertility): concentrations without overt toxicity; for LOECTOX: lowest observed effect concentration on mortality; for GSI Female / GSI Male / HSI Female / HSI Male / Length Female / Length Male / Weight Female / Weight Male: completion of exposure
[3] = target: T1, medaka ARβ (mArβ); test: Medaka ARβ reporter gene assay, antagonist assay; format: cell-based, Japanese medaka (Oryzias latipes)
[4] = target: T2, medaka Esr1 (mEsr1) (Oryzias latipes, UniProt P50241); test: Medaka Esr1 reporter gene assay, antagonist assay; format: cell-based, Japanese medaka (Oryzias latipes)
T2 sequence (P50241 1-620): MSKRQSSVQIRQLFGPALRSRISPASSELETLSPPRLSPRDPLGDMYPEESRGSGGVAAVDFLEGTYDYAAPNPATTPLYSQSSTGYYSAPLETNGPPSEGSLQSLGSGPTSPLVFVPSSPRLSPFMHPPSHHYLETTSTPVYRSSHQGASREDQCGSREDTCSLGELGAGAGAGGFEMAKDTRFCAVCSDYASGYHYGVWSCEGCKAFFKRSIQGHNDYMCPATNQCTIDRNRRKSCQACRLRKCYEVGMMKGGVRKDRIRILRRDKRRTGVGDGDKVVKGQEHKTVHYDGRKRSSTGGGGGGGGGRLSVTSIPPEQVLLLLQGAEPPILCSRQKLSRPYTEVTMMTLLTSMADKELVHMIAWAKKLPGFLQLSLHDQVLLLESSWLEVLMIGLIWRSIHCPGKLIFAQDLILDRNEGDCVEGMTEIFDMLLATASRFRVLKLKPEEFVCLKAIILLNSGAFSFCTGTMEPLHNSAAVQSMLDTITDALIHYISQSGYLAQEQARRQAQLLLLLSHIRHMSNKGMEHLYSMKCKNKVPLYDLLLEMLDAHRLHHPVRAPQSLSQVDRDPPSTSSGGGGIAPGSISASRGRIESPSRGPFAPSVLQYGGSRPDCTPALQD

[5] = target: T2, medaka Esr1 (mEsr1); test: cell-based; set-up: species or system Japanese medaka (Oryzias latipes)
[6] = 100 μg/L measured, 21 d, sig. ↓ vs control
[7] = measured concentration 5.69 μg/L
[8] = measured concentration 28.8 μg/L
[9] = measured concentration 100 μg/L
[10] = mode of action in which IC50 or IC30 was obtained in RGA
[11] = measured concentration 0.349 mg/L
[12] = measured concentration 1.02 mg/L

## CCC(CC)Nc1c([N+](=O)[O-])cc(C)c(C)c1[N+](=O)[O-] [PDM, Pendimethalin]
[1]; MAC = 1.0 × 10^−5 M
  Agonistic activity: NE (MAC = 1.0 × 10^−5 M)
[2]; 5.69 μg/L measured, 21 d
  Fertility rate: 93 ± 0.9%
  Hepatic VTG, female: 649 ± 200 ng/mg‐liver
  Hepatic VTG, male: 0.5 ± 0.0 ng/mg‐liver
  Mortality: 0.0%
  Mortality, number of dead fish: 0
  Number of fertilized eggs (per female per day): 19 ± 3.1
  Number of total eggs (per female per day): 21 ± 3.4
  SSC female (joint plates with papillary processes): 0 ± 0
  SSC male (joint plates with papillary processes): 85 ± 11
[2]; 28.8 μg/L measured, 21 d
  Fertility rate: 88 ± 4.9%
  Hepatic VTG, female: 933 ± 692 ng/mg‐liver
  Hepatic VTG, male: 5.7 ± 6.6 ng/mg‐liver
  Mortality: 4.2%
  Mortality, number of dead fish: 1
  Number of fertilized eggs (per female per day): 18 ± 3.6
  Number of total eggs (per female per day): 20 ± 3.9
  SSC female (joint plates with papillary processes): 0 ± 0
  SSC male (joint plates with papillary processes): 80 ± 8.2
[2]; 100 μg/L measured, 21 d
  Hepatic VTG, female: 813 ± 157 ng/mg‐liver
  Mortality: 8.3%
  Mortality, number of dead fish: 2
  Number of total eggs (per female per day): 19 ± 2.1
  SSC female (joint plates with papillary processes): 0 ± 0
  SSC male (joint plates with papillary processes): 80 ± 13
[2]; 100 μg/L measured, 21 d, sig. ↑ vs control
  Hepatic VTG, male: 774 ± 290 ng/mg‐liver
[2]; [6]
  Fertility rate: 62 ± 11%
  Number of fertilized eggs (per female per day): 12 ± 2.3
[2]; 21 d
  LOEC, elevated hepatic VTG in males: 100 µg/L
[2]
  LOECREPRO: 100 µg/L
  minimal effective concentration: 0.1 µg/mL
  LOECREPRO (reduction in fecundity or fertility): 100 µg/L
  LOECTOX: ND (>100) μg/L
[2]; at concentrations that did not affect number of total eggs
  Fertility rate (in words): significant decrease
[2]; [7]
  GSI Female: 10.7 ± 0.8%
  GSI Male: 0.64 ± 0.11%
  HSI Female: 4.5 ± 0.70%
  HSI Male: 2.7 ± 0.16%
  Length Female: 32.4 ± 0.7 mm
  Length Male: 31.9 ± 0.7 mm
  Weight Female: 427 ± 25 mg
  Weight Male: 366 ± 25 mg
[2]; [8]
  GSI Female: 11.3 ± 0.8%
  GSI Male: 0.55 ± 0.11%
  HSI Male: 2.7 ± 0.28%
  Length Female: 33.1 ± 0.9 mm
  Length Male: 32.2 ± 0.2 mm
  Weight Female: 455 ± 46 mg
  Weight Male: 393 ± 20 mg
[2]; [9]
  GSI Female: 9.7 ± 0.3%
  GSI Male: 0.60 ± 0.20%
  HSI Female: 4.4 ± 1.04%
  HSI Male: 2.9 ± 0.45%
  Length Female: 31.4 ± 0.8 mm
  Length Male: 31.9 ± 0.7 mm
  Weight Female: 423 ± 30 mg
  Weight Male: 389 ± 28 mg
[3]; Antagonistic activity IC50, 11‐KT spiked at 50 nM (D)
  IC50: 3.1 µM
[3]; [10]
  In vitro positive: aAr: aAr
[3]; transcriptional activity on mArβ by 11KT
  Antagonistic activity on mArβ (in words): inhibitory potency
[4]; E2 spiked at 1.0 nM (B), MAC = 1.0 × 10^−5 M
  Antagonistic activity: NE (MAC = 1.0 × 10^−5 M)^(B)
[5]
  EC50: 3.3 µM
[5]; mode of action in which EC50 or PC10 was obtained in RGA
  In vitro positive: Esr: Esr

## CCNc1nc(Cl)nc(NC(C)(C)C#N)n1 [CZ, Cyanazine]
[1]; MAC = 1.0 × 10^−4 M
  Agonistic activity: NE (MAC = 1.0 × 10^−4 M)
[2]; 0.349 mg/L measured, 21 d
  Fertility rate: 80 ± 19%
  Hepatic VTG, female: 2,550 ± 896 ng/mg‐liver
  Hepatic VTG, male: 0.5 ± 0.0 ng/mg‐liver
  Mortality: 4.2%
  Mortality, number of dead fish: 1
  Number of fertilized eggs (per female per day): 12 ± 5.8
  Number of total eggs (per female per day): 14 ± 5.1
  SSC female (joint plates with papillary processes): 0 ± 0
  SSC male (joint plates with papillary processes): 96 ± 5.9
[2]; 1.02 mg/L measured, 21 d
  Fertility rate: 71 ± 20%
  Hepatic VTG, female: 2,860 ± 679 ng/mg‐liver
  Hepatic VTG, male: 0.5 ± 0.0 ng/mg‐liver
  Mortality: 8.3%
  Mortality, number of dead fish: 2
  SSC female (joint plates with papillary processes): 0 ± 0
  SSC male (joint plates with papillary processes): 94 ± 23
[2]; 21 d
  Change of hepatic VTG levels in females (in words): did not reduce
  Fecundity, number of total eggs (in words): statistically significant decrease
[2]
  LOECREPRO: 1,020 μg/L
  minimal effective concentration: > 1.02 µg/mL
  LOECREPRO (reduction in fecundity or fertility): 1,020 μg/L
  LOECTOX: ND (>1,020) μg/L
[2]; chemicals with significant decrease of number of total eggs
  Fertility rate (in words): no significant effect
[2]; [11]
  GSI Female: 8.3 ± 0.9%
  GSI Male: 0.67 ± 0.11%
  HSI Female: 3.4 ± 0.69%
  HSI Male: 1.8 ± 0.18%
  Length Female: 35.8 ± 1.0 mm
  Length Male: 35.3 ± 1.1 mm
  Weight Female: 515 ± 28 mg
  Weight Male: 483 ± 50 mg
[2]; [12]
  GSI Female: 7.6 ± 0.9%
  GSI Male: 0.55 ± 0.08%
  HSI Female: 3.5 ± 0.33%
  HSI Male: 1.7 ± 0.14%
  Length Female: 35.0 ± 1.0 mm
  Length Male: 34.4 ± 0.8 mm
  Weight Female: 470 ± 49 mg
  Weight Male: 419 ± 40 mg
[3]; 11‐KT spiked at 50 nM (D), MAC = 1.0 × 10^−4 M
  Antagonistic activity: NE (MAC = 1.0 × 10^−4 M)^(D)
[4]
  IC50: 0.61 µM
[4]; antagonist assays
  Antagonistic activity on mEsr1 (in words): inhibited the transcriptional activity on mEsr1 by E2
[4]; [10]
  In vitro positive: aEsr: aEsr
[5]; MAC = 1.0 × 10^−4 M
  Agonistic activity: NE (MAC = 1.0 × 10^−4 M)
